Results published in ChEMBL document CHEMBL3272309, “Potential central nervous system antitumor agents. Aziridinylbenzoquinones. 1” (J Med Chem, 1976).

What was measured:
P388 [1] = experiment: Antitumor activity against mouse P388 cells allografted in mouse assessed as change in body weight at 1.56 mg/kg, ip qd administered from day 1 to 9 post ip tumor-implantation measured on day 5 relative to control; type: functional; conditions: route intraperitoneal
Mus musculus [2] = experiment: Toxicity in mouse allografted with mouse P388 cells at 6.25 mg/kg, ip qd administered from day 1 to 9 post ip tumor-implantation; type: organism-based; set-up: dose 6.25 mg/kg, route intraperitoneal; conditions: in vivo
B16 [3] = experiment: Antitumor activity against mouse B16 cells allografted in mouse assessed as change in body weight at 6.25 mg/kg, ip qd administered from day 1 to 9 post ip tumor-implantation measured on day 5 relative to control; type: functional; conditions: route intraperitoneal
[4] = Antitumor activity against mouse ependymoblastoma cells allografted in mouse assessed as change in body weight at 0.5 mg/kg, ip qd administered from day 1 to 5 post intracerebral tumor-implantation measured on day 5 relative to control; type: functional; conditions: route intraperitoneal
L1210 [5] = experiment: Antitumor activity against mouse L1210 cells allografted in mouse assessed as mouse survival at 1.56 mg/kg, ip qd administered from day 1 to 9 post intracerebral tumor-implantation relative to control; type: functional; conditions: route intraperitoneal
[6] = system: Lewis lung carcinoma cell line; experiment: Antitumor activity against mouse LLC cells allografted in mouse assessed as mouse survival at 1 mg/kg, ip qd administered from day 5 to 15 post sc tumor-implantation relative to control; type: functional; conditions: route subcutaneous
[7] = Antitumor activity against mouse ependymoblastoma cells allografted in mouse assessed as mouse survival at 4 mg/kg, ip qd administered from day 1 to 5 post intracerebral tumor-implantation relative to control; type: functional; conditions: route intraperitoneal
L1210 [8] = experiment: Antitumor activity against mouse L1210 cells allografted in mouse assessed as mouse survival at 0.88 mg/kg, ip qd administered from day 1 to 9 post ip tumor-implantation relative to control; type: functional; conditions: route intraperitoneal
Mus musculus [9] = experiment: Toxicity in mouse allografted with mouse LLC cells at 4 mg/kg, ip qd administered from day 5 to 15 post sc tumor-implantation; type: organism-based; set-up: dose 4 mg/kg; conditions: in vivo
Mus musculus [10] = experiment: Toxicity in mouse allografted with mouse B16 cells at 6.25 mg/kg, ip qd administered from day 1 to 9 post ip tumor-implantation; type: organism-based; set-up: dose 6.25 mg/kg, route intraperitoneal; conditions: in vivo
[11] = Antitumor activity against mouse ependymoblastoma cells allografted in mouse assessed as change in body weight at 8 mg/kg, ip qd administered from day 1 to 5 post intracerebral tumor-implantation measured on day 5 relative to control; type: functional; conditions: route intraperitoneal
B16 [12] = experiment: Antitumor activity against mouse B16 cells allografted in mouse assessed as mouse survival at 0.78 mg/kg, ip qd administered from day 1 to 9 post ip tumor-implantation relative to control; type: functional; conditions: route intraperitoneal
L1210 [13] = experiment: Antitumor activity against mouse L1210 cells allografted in mouse assessed as mouse survival at 0.78 mg/kg, ip qd administered from day 1 to 9 post intracerebral tumor-implantation relative to control; type: functional; conditions: route intraperitoneal
[14] = Antitumor activity against mouse ependymoblastoma cells allografted in mouse assessed as mouse survival at 0.5 mg/kg, ip qd administered from day 1 to 5 post intracerebral tumor-implantation relative to control; type: functional; conditions: route intraperitoneal
L1210 [15] = experiment: Antitumor activity against mouse L1210 cells allografted in ip dosed mouse at optimum dose administered qd on day 1, 5 and 9 relative to control; type: functional
B16 [16] = experiment: Antitumor activity against mouse B16 cells allografted in mouse assessed as change in body weight at 1.56 mg/kg, ip qd administered from day 1 to 9 post ip tumor-implantation measured on day 5 relative to control; type: functional; conditions: route intraperitoneal
B16 [17] = experiment: Antitumor activity against mouse B16 cells allografted in mouse assessed as mouse survival at 3.12 mg/kg, ip qd administered from day 1 to 9 post ip tumor-implantation relative to control; type: functional; conditions: route intraperitoneal
P388 [18] = experiment: Antitumor activity against mouse P388 cells allografted in mouse assessed as change in body weight at 0.39 mg/kg, ip qd administered from day 1 to 9 post intracerebral tumor-implantation measured on day 5 relative to control; type: functional; conditions: route intraperitoneal
P388 [19] = experiment: Antitumor activity against mouse P388 cells allografted in mouse assessed as change in body weight at 3.12 mg/kg, ip qd administered from day 1 to 9 post intracerebral tumor-implantation measured on day 5 relative to control; type: functional; conditions: route intraperitoneal
B16 [20] = experiment: Antitumor activity against mouse B16 cells allografted in mouse assessed as change in body weight at 0.78 mg/kg, ip qd administered from day 1 to 9 post ip tumor-implantation measured on day 5 relative to control; type: functional; conditions: route intraperitoneal
L1210 [21] = experiment: Antitumor activity against mouse L1210 cells allografted in mouse assessed as mouse survival at 6.25 mg/kg, ip qd administered from day 1 to 9 post ip tumor-implantation relative to control; type: functional; conditions: route intraperitoneal
Mus musculus [22] = experiment: Toxicity in mouse allografted with mouse ependymoblastoma cells at 8 mg/kg, ip qd administered from day 1 to 5 post intracerebral tumor-implantation; type: organism-based; set-up: dose 8 mg/kg, route intraperitoneal; conditions: in vivo
L1210 [23] = experiment: Antitumor activity against mouse L1210 cells allografted in mouse assessed as mouse survival at 1.3 mg/kg, ip qd administered from day 1 to 9 post ip tumor-implantation relative to control; type: functional; conditions: route intraperitoneal
[24] = Therapeutic ratio, ratio of highest active dose to lowest active for antitumor activity against in ip dosed mouse allografted with mouse L1210 cells; type: ADME, organism-based; conditions: in vivo, read-out: TI
L1210 [25] = experiment: Antitumor activity against mouse L1210 cells allografted in mouse assessed as mouse survival at 3.12 mg/kg, ip qd administered from day 1 to 9 post ip tumor-implantation relative to control; type: functional; conditions: route intraperitoneal
L1210 [26] = experiment: Antitumor activity against mouse L1210 cells allografted in mouse assessed as change in body weight at 3.12 mg/kg, ip qd administered from day 1 to 9 post intracerebral tumor-implantation measured on day 5 relative to control; type: functional; conditions: route intraperitoneal
L1210 [27] = experiment: Antitumor activity against mouse L1210 cells allografted in mouse assessed as change in body weight at 0.78 mg/kg, ip qd administered from day 1 to 9 post intracerebral tumor-implantation measured on day 5 relative to control; type: functional; conditions: route intraperitoneal
B16 [28] = experiment: Antitumor activity against mouse B16 cells allografted in mouse assessed as mouse survival at 1.56 mg/kg, ip qd administered from day 1 to 9 post ip tumor-implantation relative to control; type: functional; conditions: route intraperitoneal
[29] = Therapeutic ratio in ip dosed mouse allografted with mouse ependymoblastoma cells; type: ADME, organism-based; conditions: in vivo, read-out: TI
P388 [30] = experiment: Antitumor activity against mouse P388 cells allografted in mouse assessed as mouse survival at 1.56 mg/kg, ip qd administered from day 1 to 9 post intracerebral tumor-implantation relative to control; type: functional; conditions: route intraperitoneal
P388 [31] = experiment: Antitumor activity against mouse P388 cells allografted in mouse assessed as mouse survival at 3.12 mg/kg, ip qd administered from day 1 to 9 post ip tumor-implantation relative to control; type: functional; conditions: route intraperitoneal
L1210 [32] = experiment: Antitumor activity against mouse L1210 cells allografted in mouse assessed as change in body weight at 1.3 mg/kg, ip qd administered from day 1 to 9 post ip tumor-implantation measured on day 5 relative to control; type: functional; conditions: route intraperitoneal
P388 [33] = experiment: Antitumor activity against mouse P388 cells allografted in mouse assessed as change in body weight at 0.78 mg/kg, ip qd administered from day 1 to 9 post intracerebral tumor-implantation measured on day 5 relative to control; type: functional; conditions: route intraperitoneal
L1210 [34] = experiment: Antitumor activity against mouse L1210 cells allografted in mouse assessed as change in body weight at 2 mg/kg, ip qd administered from day 1 to 9 post ip tumor-implantation measured on day 5 relative to control; type: functional; conditions: route intraperitoneal

In the case of `CCOC(=O)NC1=C(N2CC2)C(=O)C(NC(=O)OCC)=C(N2CC2)C1=O` [DIAZIQUONE], the Activity (P388 [1]) is reported as -4 g, the Activity (Mus musculus [2]) is reported as “Toxic” and the Activity (B16 [3]) is reported as -4.4 g. It also gave an Activity [4] of -1.8 g, a T/C (L1210 [5]) of 146% and a T/C [6] of 89%. The T/C [7] was 376%, the T/C (L1210 [8]) was 132% and the Activity (Mus musculus [9]) was “Toxic”. For the same compound, the Activity (Mus musculus [10]) was “Toxic”, the Activity [11] was -5 g and the T/C (B16 [12]) was 113%. The T/C (L1210 [13]) was 103%, the T/C [14] was 162% and the T/C (L1210 [15]) was 154%. It also gave an Activity (B16 [16]) of -3.6 g, a T/C (B16 [17]) of 143% and an Activity (P388 [18]) of -0.7 g. It also gave an Activity (P388 [19]) of -2.1 g, an Activity (B16 [20]) of -2.2 g and a T/C (L1210 [21]) of 127%. The Activity (Mus musculus [22]) was “Toxic”, the T/C (L1210 [23]) was 160% and the selectivity ratio [24] was 4. It also gave a T/C (L1210 [25]) of 128%, an Activity (L1210 [26]) of -2.1 g and an Activity (L1210 [27]) of -0.5 g. The T/C (B16 [28]) was 138%, the selectivity ratio [29] was 4 and the T/C (P388 [30]) was 137%. The T/C (P388 [31]) was 100%, the Activity (L1210 [32]) was -2.3 g and the Activity (P388 [33]) was -0.4 g. For the same compound, the Activity (L1210 [34]) was -3.8 g.
